In patent publication US6642031B2, “Microorganisms with ability to degrade indole and enzymes therefrom” (Genencor International, Inc., priority 1995, dated 2003):
Several values for one entry are separate records, joined by “and”; a condition that tells them apart may be missing. Equal values may be shown once. Read-outs that look alike come from different tables or passages of the source.

Experiments:
Strain WW2 whole cells = experiment: Whole cell oxygen uptake with indole and related substrates (Clark electrode oxygraph); type: cell-based, Pseudomonas putida; details: for Relative % (oxygen uptake rate) / Oxygen Uptake: substrate 0.6 mM; for Relative % (oxygen uptake rate): indole-dependent rate defined as 100%; for Oxygen Uptake: whole cells 4.5 h after indole induction, corrected for uptake without substrate
Description: (§1) Carbon utilization of WW2 was determined by its ability to grow on alternate carbon sources. The bulk of these were determined by Biolog assay. […] In addition, substrate-dependent oxygen consumption of whole resting cells was measured by oxygraph assay as described in Example 11.
(§2) Indole oxidation activity in whole cells was routinely determined by measuring oxygen uptake rates with a Biological Oxygen Monitor (Yellow Springs Instrument Co., model 5300, Ohio) equipped with a Clark electrode. Reactions were carried out in a stirred, 1.5 ml reaction chamber at 25° C. Washed cells of strain WW2 suspended in 50 mM Tris-HCl (pH 7.5) to an A600 of 2.0 were pre-equilibrated at 25° C. before their addition to the reaction chamber. After recording the endogenous oxygen uptake rate, indole or other substrates (100 mM in dimethylformamide) were added to a final concentration of 0.3 to 1 mM. […] Reported rates were corrected for oxygen uptake observed in the absence of substrate. In the case of indoxyl, the reported rate was also corrected for the spontaneous oxygen consumption rate of indoxyl oxidation in the absence of indole-induced cells.

indole oxidase [1] = experiment: Cell-free oxygen uptake in WW2 indole-induced cell extract; type: biochemical, Pseudomonas putida; details: for Oxygen Uptake: 1.82 mg/ml cell extract protein, 1 mM NADH, pH 7.5, corrected for uptake without substrate
[2] = test system: indole oxidation activity in strain WW2 crude cell extract; experiment: Cell-free indole-dependent NAD(P)H oxidation, cofactor requirements (spectrophotometric); type: biochemical, Pseudomonas putida
Description: Spectrophotometric assavs. Cell-free, indole-dependent NADH oxidation was measured spectrophotometrically with a Hewlett-Packard 8452A diode array spectrophotometer. The reactions (1.0 ml volume) contained crude soluble cytosolic fraction (SCF), 3.0 mM NADH, 2.0 mM indole and 50 mM Tris-HCl (pH 7.5). The reactions were initiated by addition of NADH and the initial rates were corrected for background NADH oxidation rates, which were measured in the absence of indole. NADPH was substituted for NADH to compare its ability to serve as an electron donor for indole oxidation activity.
Cofactor requirement of the indole oxidizing activity in the crude soluble cytosolic fraction was investigated in spectrophotometric assays as described in Example 6.

[3] = test system: Pseudomonas putida strain WW2; experiment: Growth on carbon sources in MSB liquid culture or agar plates; details: for support of growth as carbon source (words): MSB liquid medium or agar plates
Description: Cultivation of the organism. Growth was measured turbidimetrically at 600 nm. […] Additional potential carbon sources were assessed in MSB supplemented with the carbon alternate source (0.2% (w/v) unless specified otherwise) or on plates provided with volatile substrates in the vapor phase. Growth was also conducted in 14 L fermenters in the fed batch mode. […] To study enzyme activity of indole oxidase, the organism was cultured in 50 or 500 ml of media (in 250 ml or 2.8 L nominal volume flasks, respectively) containing minimal salts, succinate and 0.02% indole at 30° C. with rotary shaking (200 rpm).
as §1

indole oxidase [4] = experiment: Substrate depletion assay with cell extract, GC/MS and visible spectrum; type: biochemical, Pseudomonas putida
Description: Substrate depletion assays. Substrate depletion assays were carried out in 1.5 ml to 10 ml reactions containing crude SCF, 4.0 mM NADH or NADPH, 2.0 μM FAD, and 1.0 mM indole in 50 mM Tris-HCl (pH 7.5 or 8.0). Substrate and product concentrations were determined by incubating the reactions for the specified period of time with shaking at 250 rpm, extracting 1.0 ml of the aqueous reaction with ethyl acetate and analyzing the extract by gas chromatography-mass spectrometry (GC/MS) described below.
GC/MS was carried out with a Hewlett-Packard model 5890 gas chromatograph equipped with a Hewlett-Packard DB-5 capillary column (inside diameter 0.2 mm by 25 m) and a Hewlett-Packard model 5971 mass selective detector (electron impact ionization 70 eV). The column temperature was programmed from 50 to 325° C. at 10° C./min with a helium flow of 12 cm/s. Temperatures of the injection port and transfer line were 250 and 280° C., respectively.
After indole was completely consumed the reaction mixture was diluted into dimethylformamide (DMF) and the visible spectrum of the resultant blue solution was measured.

Strain WW2 = experiment: Induction and sustaining of indole oxidation activity in growing cultures (oxygen uptake with indole); type: cell-based, Pseudomonas putida; details: for Oxygen Uptake Rate, Rate 3 h After Re-Addition: re-addition (indole 0.2 g/l and/or succinate 2 g/l) to 4 h indole-induced cells, measured 7 h after initial induction
From the text: Several methods were examined to induce cultures of strain Pseudomonas putida WW2 for indole oxidation during growth. These included growing the strain in MSB containing 0.2% succinate with: (i) a single addition of 0.02% indole and 0.2% succinate during late log phase; (ii) indole provided in the vapor phase, during growth, from a small cloth bag containing indole crystals suspended above the surface of the medium; or (iii) both indole vapor during growth and direct addition of 0.02% indole and 0.2% succinate during late log phase.
as §2

[5] = substrate 0.3 mM, indole = 100%

| SMILES | Relative % (oxygen uptake rate) (Strain WW2 whole cells) [%] | Oxygen Uptake (Strain WW2 whole cells) [O2 %/min/ODU] | Oxygen Uptake (indole oxidase [1]; substrate 0.3 mM) [O2 %/min/ODU] | Relative % (oxygen uptake rate) (indole oxidase [1]; [5]) [%] | further results |
| --- | --- | --- | --- | --- | --- |
| c1ccc2occc2c1 [2,3-Benzofuran] | 30 | 3.5 | 0 | 0 | – |
| Cc1c[nH]c2ccccc12 [3-Me-Indole] | – | – | 2 | 14 | – |
| Clc1cccc2[nH]ccc12 [4-Cl-Indole] | – | – | 0 | 0 | – |
| Cc1cccc2[nH]ccc12 [4-Me-Indole] | – | – | 1 | 7 | – |
| Oc1cccc2[nH]ccc12 [4-OH-Indole] | – | – | 2.5 | – | Relative % (oxygen uptake rate) (indole oxidase [1]): 17% |
| Brc1ccc2[nH]ccc2c1 [5-Br-Indole] | – | – | 0 | 0 | – |
| Clc1ccc2[nH]ccc2c1 [5-Cl-Indole] | – | – | 4 | 28 | – |
| Fc1ccc2[nH]ccc2c1 [5-F-Indole, 5-fluoroindole] | 50 | 5.9 | 13.5 | 93 | – |
| COc1ccc2[nH]ccc2c1 [5-MeO-Indole] | – | – | 1 | – | Relative % (oxygen uptake rate) (indole oxidase [1]): 7% |
| O=[N+]([O-])c1ccc2[nH]ccc2c1 [5-NO2-Indole] | – | – | 0 | 0 | – |
| Oc1ccc2[nH]ccc2c1 [5-OH-Indole] | – | – | 3.5 | 24 | – |
| Clc1ccc2cc[nH]c2c1 [6-Cl-Indole] | – | – | 7 | 48 | – |
| Cc1cccc2cc[nH]c12 [7-Me-Indole] | 39 | 4.6 | 12.5 | 86 | – |
| Nc1ccccc1C(=O)O [Anthranilate, Anthranilic acid] | <1 | 0.6 | – | – | stimulation of oxygen uptake rate (Strain WW2 whole cells; whole resting cells): no significant stimulation |
| Cc1cc2nc3c(=O)[nH]c(=O)nc-3n(C[C@H](O)[C@H](O)[C@H](O)COP(=O)(O)OP(=O)(O)OC[C@H]3O[C@@H](n4cnc5c(N)ncnc54)[C@H](O)[C@@H]3O)c2cc1C [FAD, flavin adenine dinucleotide] | – | – | – | – | stimulation of activity by cofactor added to the assay [2]: 3 fold |
| Cc1cc2nc3c(=O)[nH]c(=O)nc-3n(C[C@H](O)[C@H](O)[C@H](O)COP(=O)(O)O)c2cc1C [FMN] | – | – | – | – | effect of added cofactor on activity [2]: no effect |
| O=S(=O)([O-])[O-].O=S(=O)([O-])[O-].[Fe+2].[NH4+].[NH4+] [Fe^++, Fe(NH4)2SO4] | – | – | – | – | effect of added cofactor on activity [2]: stimulatory effect |
| c1ccc2[nH]ccc2c1 [Indole] | 100 | 11.8 | 14.5 | 100 | support of growth as carbon source (words) [3]: good carbon source; concentration above which toxic ([3]; liquid culture): exceeded 400 mg/L; conversion of indole to indigo (indole oxidase [4]; 4.0 mM NADPH as electron donor, from absorption at 610 nm in DMF): 20%; Oxygen Uptake Rate, Rate After 4 h Induction with Indole (Strain WW2; induced with indole 0.2 g/l at 16 h growth, before re-addition): 14.4 O2 %/min/ODU and 13.3 O2 %/min/ODU and 14.1 O2 %/min/ODU and 12.1 O2 %/min/ODU; Oxygen Uptake Rate, Rate 3 h After Re-Addition (Strain WW2): 13.8 O2 %/min/ODU |
| Oc1c[nH]c2ccccc12 [Indoxyl, 3-hydroxyindole] | 177 | 20.9 | – | – | increase in oxygen uptake rate (Strain WW2 whole cells; relative to indole): 1.7 fold |
| O=C1Nc2ccccc2C1=O [Isatin, 2,3-dioxoindole] | – | – | 0 | 0 | – |
| NC(=O)C1=CN([C@@H]2O[C@H](COP(=O)(O)OP(=O)(O)OC[C@H]3O[C@@H](n4cnc5c(N)ncnc54)[C@H](OP(=O)(O)O)[C@@H]3O)[C@@H](O)[C@H]2O)C=CC1 [NADPH, nicotinamide adenine phosphate dinucleotide] | – | – | – | – | rate of indole removal relative to that observed with NADH (indole oxidase [4]; 4.0 mM NADPH instead of NADH, cell extract 0.57 mg/ml, pH 8): approximately 60% |
| c1ccc2ccccc2c1 [Naphthalene] | 9 | 1.1 | – | – | support of growth as carbon source (words) [3]: did not support growth; support of growth as carbon source (words) ([3]; listed as naphthalene): not to support growth; Relative % (oxygen uptake rate) (Strain WW2 whole cells; listed as naphthalene): 9%; activity of the enzyme with the substrate (indole oxidase [1]): very low activity |
| O=C(O)CCC(=O)O [Succinate] | – | – | – | – | Oxygen Uptake Rate, Rate 3 h After Re-Addition (Strain WW2): 1.8 O2 %/min/ODU |
| c1ccc2sccc2c1 [Thianaphthene] | 26 | 3.1 | 1 | 7 | – |
| C1=Cc2ccccc2C1 [indene] | – | – | – | – | 2-indanone, single detectable product, share of total ion current (indole oxidase [4]; crude SCF with NADPH, GC/MS): approximately 20% |
